Where a name gives a salt, the structure may show the parent alone.
Experiments:
human P2X3 receptor = target: T1, human P2X3 receptor (Homo sapiens, UniProt P56373); assay: Intracellular calcium measurement to assess antagonist activity at human P2X3 receptors (hP2X3 CHO), photina luminescence; format: cell-based; design: expressed in transfected cells; host or cells: Chinese hamster ovary (CHO) cells; conditions: column 2), CHO cells, agonist α,β-methylene-ATP at EC50
T1 sequence (P56373 1-397): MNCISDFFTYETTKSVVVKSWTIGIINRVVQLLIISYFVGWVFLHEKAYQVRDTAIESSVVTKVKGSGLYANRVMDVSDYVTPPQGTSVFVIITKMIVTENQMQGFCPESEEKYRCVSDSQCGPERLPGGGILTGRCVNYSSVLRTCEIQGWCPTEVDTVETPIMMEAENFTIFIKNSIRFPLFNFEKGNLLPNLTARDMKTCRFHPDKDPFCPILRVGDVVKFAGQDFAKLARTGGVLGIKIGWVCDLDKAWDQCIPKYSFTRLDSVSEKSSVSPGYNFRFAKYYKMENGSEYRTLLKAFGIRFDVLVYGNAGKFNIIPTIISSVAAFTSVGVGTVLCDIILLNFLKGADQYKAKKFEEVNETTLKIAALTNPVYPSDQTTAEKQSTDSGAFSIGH
Experimental: 2) Intracellular Calcium Measurement to Assess Antagonist Activity at Human P2X3 Receptors (hP2X3 CHO)
The determination of antagonistic activity at the P2X3 receptor of the compounds of the invention was performed by use of a recombinant cell line. This cell line derives originally from the Chinese hamster ovary (CHO) cell line (Tjio J. H.; Puck T. T., 1958, J. Exp. Med. 108: 259-271). The cell line is stably transfected with the human P2X3 receptor and a calcium-sensitive photoprotein, mitochondrial photina, which, after reconstitution with the cofactor coelenterazine, emits light in dependence of calcium binding [Bovolenta S, Foti M, Lohmer S, Corazza S., J Biomol Screen. 2007 August; 12(5):694-704]. The strength of the photina luminescence signal corresponds to the level of receptor activation upon agonist binding. An inhibitor would decrease the signal depending on its potency and concentration. Bioluminescence was detected using a suitable luminometer [Milligan G, Marshall F, Rees S, Trends in Pharmacological Sciences 17,235-237 (1996)].
On the day before the assay, the cells were plated out in culture medium (DMEM/F12 (PAN, P04-41451), 10% FCS) in 384-well microtiter plates and kept in a cell incubator (96% humidity, 5% v/v CO2, […]). On the day of the assay medium was replaced by 2 mM Ca-tyrode buffer containing 5 μg/ml coelenterazine. Plates were incubated for 3 hours at 37° C. (96% humidity, 5% v/v CO2). […] The resulting light signal was measured immediately in the luminometer.

human P2X2/3 receptors = target: T2, human P2X2/3 receptors (Homo sapiens, UniProt P56373+Q9UBL9); assay: Intracellular calcium measurement, antagonist activity at human P2X2/3 receptors (hP2X23 1321N1), Fluo8; format: cell-based; conditions: column 4); 1321N1 cells, human P2X2/3, Fluo8, agonist ATP at EC50; read-out: 4) hP2X2/3 IC50 [nM] (1321N1)
T2 construct: expressed in transfected cells; host or cells: human astrocytoma 1321N1 (1312N1 [sic])
T2 sequence (P56373 1-397): T1 sequence (P56373 1-397)
T2 sequence (Q9UBL9 1-471): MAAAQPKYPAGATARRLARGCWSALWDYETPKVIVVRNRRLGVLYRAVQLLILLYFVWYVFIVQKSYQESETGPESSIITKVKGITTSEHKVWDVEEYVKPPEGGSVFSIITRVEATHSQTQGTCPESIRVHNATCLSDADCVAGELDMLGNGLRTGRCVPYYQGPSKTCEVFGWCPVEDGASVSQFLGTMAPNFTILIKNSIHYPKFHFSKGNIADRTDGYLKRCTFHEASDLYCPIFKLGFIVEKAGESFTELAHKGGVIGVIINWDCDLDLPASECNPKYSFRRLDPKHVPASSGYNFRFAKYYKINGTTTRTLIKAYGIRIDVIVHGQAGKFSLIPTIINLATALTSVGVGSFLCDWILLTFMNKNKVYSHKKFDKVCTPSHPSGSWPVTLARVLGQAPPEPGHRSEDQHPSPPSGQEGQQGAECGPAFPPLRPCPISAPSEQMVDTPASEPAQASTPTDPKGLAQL
Experimental: 3) And 4) Intracellular Calcium Measurement to Compare Antagonist Activity at Human P2X3 Receptors (hP2X3 1321N1) and at Human P2X2/3 Receptors (hP2X23 1321N1)
The comparison of antagonistic activity at the P2X3 versus the P2X2/3 receptor of the compounds of the invention were performed by use of recombinant cell lines. These cell lines derived originally from the human astrocytoma cell line […] (Macintyre E H, Pontén J, Vatter A E. Acta Pathol Microbiol Scand A. 1972; 80(2):267-83). The cell lines are stably transfected with the human P2X3 receptor forming homotrimeric P2X3 receptors or are co-transfected with P2X2 and P2X3 forming heterotrimeric P2X2/3 receptors. Stimulation of the receptors with the agonist ATP leads to a conformational change of the receptors and influx of extracellular calcium ions through the open ion channel. The cytoplasmatic calcium transient is detected via the calcium sensitive dye Fluo8. The strength of Fluo8 fluorescence signal corresponds to the level of receptor activation. An inhibitor would decrease the signal depending on its potency and concentration. Fluorescence was measured by use of a suitable fluorescence reader.
On the day before the assay, the cells were plated in culture medium (DMEM high glucose, 10% FCS, 1% MEM non-essential amino acids, 4 mM Glutamax) in 384-well poly-D-lysine coated microtiter plates and kept in a cell incubator (96% humidity, 5% v/v CO2, 37° C.). On the day of the assay medium was exchanged by Fluo8 containing buffer and incubated for 60 minutes. Test compounds were added at various concentrations and plates were incubated for 10 minutes. In the fluorescence reader a 3 seconds baseline measurement was performed and the agonist ATP was applied at EC50 concentration of the respective receptor during constant fluorescence measurement for 120 seconds.

Row | SMILES | IC50 (human P2X3 receptor) [nM] | IC50 (human P2X2/3 receptors) [nM]
1 | CCc1cc2n(CC(=O)Nc3ccc(F)cn3)c3c(c(=O)n2n1)CN(C(C)COCc1ccccc1)C3=O (racemic) [Example 121, 2-{6-[(±)-1-(benzyloxy)propan-2-yl]-2-ethyl-5,8-dioxo-5,6,7,8-tetrahydro-4H-pyrazolo[1,5-a]pyrrolo[3,4-d]pyrimidin-4-yl}-N-(5-fluoropyridin-2-yl)acetamide] | 51 | 1160
2 | CCc1cc2n(CC(=O)Nc3ccc(F)cn3)c3c(c(=O)n2n1)CN(Cc1ccc(C)nc1)C3=O [Example 117] | 27 | 6150
3 | CCc1cc2n(CC(=O)Nc3ccc(F)cn3)c3c(c(=O)n2n1)CN(C(C)(C)COCc1ccccc1)C3=O [Example 120, 2-{6-[1-(benzyloxy)-2-methylpropan-2-yl]-2-ethyl-5,8-dioxo-5,6,7,8-tetrahydro-4H-pyrazolo[1,5-a]pyrrolo[3,4-d]pyrimidin-4-yl}-N-(5-fluoropyridin-2-yl)acetamide] | 5 | 345
4 | Cc1ccc(-c2cc3n(CC(=O)Nc4ccc(F)cn4)c4c(c(=O)n3n2)CN([C@H]2CCOC2)C4=O)nc1 [Example 161, N-(5-fluoropyridin-2-yl)-2-{2-(5-methylpyridin-2-yl)-5,8-dioxo-6-[(3S)-oxolan-3-yl]-5,6,7,8-tetrahydro-4H-pyrazolo[1,5-a]pyrrolo[3,4-d]pyrimidin-4-yl}acetamide] | 24 | 1350
5 | COC[C@H](C)N1Cc2c(n(CC(=O)Nc3ccc(F)cn3)c3cc(-c4ccc(C)cn4)nn3c2=O)C1=O [Example 162] | 6 | 1200
6 | COC[C@H](C)N1Cc2c(n(CC(=O)Nc3ccc(F)cn3)c3cc(-c4ncccc4C)nn3c2=O)C1=O [Example 164] | 20 | 3700
7 | COC[C@H](C)N1Cc2c(n(CC(=O)Nc3ccc(F)cn3)c3cc(C(=O)N(C)c4ccccn4)nn3c2=O)C1=O [Example 214] | 22 | 6450
8 | CC(C)N1Cc2c(n(CC(=O)Nc3ccc(F)cn3)c3cc(C4CN(C(=O)OC(C)(C)C)C4)nn3c2=O)C1=O [Example 230, tert-butyl 3-[4-{2-[(5-fluoropyridin-2-yl)amino]-2-oxoethyl}-5,8-dioxo-6-(propan-2-yl)-5,6,7,8-tetrahydro-4H-pyrazolo[1,5-a]pyrrolo[3,4-d]pyrimidin-2-yl]azetidine-1-carboxylate] | 115 | 
9 | CCc1cc2n(CC(=O)Nc3ccc(F)cn3)c3c(c(=O)n2n1)CN(C1CCNCC1)C3=O [Example 237] | 1950 | 
10 | CCc1cc2n(CC(=O)Nc3ccc(F)cn3)c3c(c(=O)n2n1)CN(CC1CNC1)C3=O [Example 242] | 585 | 
11 | CCc1cc2n(CC(=O)Nc3ccc(F)cn3)c3c(c(=O)n2n1)CN(C1CNC1)C3=O [Example 243] | 230 | 
12 | CCc1cc2n(CC(=O)Nc3ccc(F)cn3)c3c(c(=O)n2n1)CN(C1CCN(C2CCC2)C1)C3=O (stereo not shown) [Example 254] | 1150 | 
13 | CCc1cc2n(CC(=O)Nc3ccc(F)cn3)c3c(c(=O)n2n1)CN(CC1CN(C(C)=O)C1)C3=O [Example 268] | 580 | 
14 | CCc1cc2n(CC(=O)Nc3ccc(F)cn3)c3c(c(=O)n2n1)CN(C1CN(C(C)=O)C1)C3=O [Example 269] | 1500 | 
15 | CCc1cc2n(CC(=O)Nc3ccc(F)cn3)c3c(c(=O)n2n1)CN(C1CN(S(C)(=O)=O)C1)C3=O [Example 273] | 565 | 
16 | CCc1cc2n(CC(=O)Nc3ccc(F)cn3)c3c(c(=O)n2n1)CN(CC(=O)N1CCOCC1)C3=O [Example 291, 2-{2-ethyl-6-[2-(morpholin-4-yl)-2-oxoethyl]-5,8-dioxo-5,6,7,8-tetrahydro-4H-pyrazolo[1,5-a]pyrrolo[3,4-d]pyrimidin-4-yl}-N-(5-fluoropyridin-2-yl)acetamide] | 415 | 
17 | CCc1cc2n(CC(=O)Nc3ccc(F)cn3)c3c(c(=O)n2n1)CN(CC(=O)N(C)CC1CC1)C3=O [Example 293] | 240 | 
18 | CCc1cc2n(CC(=O)Nc3ccc(F)cn3)c3c(c(=O)n2n1)CN(CC(=O)N(C)C1CC1)C3=O [Example 294] | 247 | 

Other lines, results leading:

Row | IC50 (human P2X3 receptor) [nM] | IC50 (human P2X2/3 receptors) [nM] | SMILES
19 | 95 | > 23500 | CC(C)N1Cc2c(n(CC(=O)Nc3ccc(F)cn3)c3cc(C4CCC(=O)N4C)nn3c2=O)C1=O (racemic) [Example 231, N-(5-fluoropyridin-2-yl)-2-{2-[(±)-1-methyl-5-oxopyrrolidin-2-yl]-5,8-dioxo-6-(propan-2-yl)-5,6,7,8-tetrahydro-4H-pyrazolo[1,5-a]pyrrolo[3,4-d]pyrimidin-4-yl}acetamide]
20 | 13 | 1460 | CC(C)N1Cc2c(n(CC(=O)Nc3ccc(F)cn3)c3cc(-c4ccc(F)cn4)nn3c2=O)C1=O [Example 165]
21 | 37 | 3870 | CC(C)N1Cc2c(n(CC(=O)Nc3ccc(F)cn3)c3cc(C(=O)Nc4ccccn4)nn3c2=O)C1=O [Example 201]
22 | 17 | 5000 | CC(C)N1Cc2c(n(CC(=O)Nc3ccc(F)cn3)c3cc(C(=O)Nc4c(F)cccc4F)nn3c2=O)C1=O [Example 205]
23 | 17 | 2680 | CC(C)N1Cc2c(n(CC(=O)Nc3ccc(F)cn3)c3cc(C(=O)Nc4cccnc4)nn3c2=O)C1=O [Example 207]
24 | 30 |  | COC[C@H](C)N1Cc2c(n(CC(=O)Nc3ccc(F)cn3)c3cc(C(=O)Nc4ccccc4F)nn3c2=O)C1=O [Example 221]
25 | 145 |  | CC(C)N1Cc2c(n(CC(=O)Nc3ccc(F)cn3)c3cc(C(=O)NCCCO)nn3c2=O)C1=O [Example 224]
26 | 53 |  | CC(C)N1Cc2c(n(CC(=O)Nc3ccc(F)cn3)c3cc(CN4CCCC4=O)nn3c2=O)C1=O [Example 232, 2-{5,8-dioxo-2-[(2-oxopyrrolidin-1-yl)methyl]-6-(propan-2-yl)-5,6,7,8-tetrahydro-4H-pyrazolo[1,5-a]pyrrolo[3,4-d]pyrimidin-4-yl}-N-(5-fluoropyridin-2-yl)acetamide]
27 | 625 |  | CC(C)N1Cc2c(n(CC(=O)Nc3ccc(F)cn3)c3cc(N)nn3c2=O)C1=O [Example 241, 2-[2-amino-5,8-dioxo-6-(propan-2-yl)-5,6,7,8-tetrahydro-4H-pyrazolo[1,5-a]pyrrolo[3,4-d]pyrimidin-4-yl]-N-(5-fluoropyridin-2-yl)acetamide hydrochloride (1:1)]
28 | 127 |  | CC(C)N1Cc2c(n(CC(=O)Nc3ccc(F)cn3)c3cc(C4CN(C)C4)nn3c2=O)C1=O [Example 262]

— patent US11319324B2, “Pyrazolo-pyrrolo-pyrimidine-dione derivatives as P2X3 inhibitors” (Bayer Aktiengesellschaft, priority 2017, dated 2022)
